# Test results reported in publication PMC10485820 (European Journal of Pharmaceutical Sciences, 2023).
# Like-named read-outs stand apart in the source and are kept apart here.
# Experiments:
# [1] = test system: primary human plated hepatocytes; assay: Metabolic stability in human plated hepatocytes; conditions: incubation up to 48 h, HSK7653 at 0.05 μM
# Method: Reactions were stopped by removing the plates from the incubator and mixing the incubation solution with 600 μL of ice-cold stop solution (acetonitrile) at the corresponding sampling time points.
# [2] = Apparent permeability in Caco-2 monolayer cell lines; type: in vitro ADME; conditions: human, Caco-2, positive controls
# Method: All experiments were performed in triplicate and analyzed by high-performance liquid chromatography with tandem mass spectrometry (HPLC-MS/MS). The apparent permeability coefficient (Papp) of each compound under the corresponding concentration was calculated according to Eq. (1) and listed as follows:(1) Papp=dQ/dt×1/A×C0 Where Papp was the apparent permeability coefficient (cm/s × 10^−6), dQ/dt (pmol/second) was the rate at which the compound appears in the receiver side, C0 (nM) was the initial concentration of the compound in the donor side, and A (cm^2) represented the surface area of the cell monolayer.
structure (smiles),measurement,setting,value
CC[C@@]1(c2ccccc2)NC(=O)N(C)C1=O [S-mephenytoin],Half-life (t1/2) in human hepatocytes,[1],21.7 h
"C[C@H]1O[C@@H](O[C@H]2[C@@H](O)C[C@H](O[C@H]3[C@@H](O)C[C@H](O[C@H]4CC[C@@]5(C)[C@H](CC[C@@H]6[C@@H]5C[C@@H](O)[C@]5(C)[C@@H](C7=CC(=O)OC7)CC[C@]65O)C4)O[C@@H]3C)O[C@@H]2C)C[C@H](O)[C@@H]1O [digoxin, reference compound]",Papp at 2 h,[2]; read-out: Papp,1.85 ×10⁻⁶ cm/s
"CC(C)NCC(O)COc1cccc2ccccc12 (stereo not shown) [propranolol, reference compound]",Papp at 2 h,"[2]; apical pH: basolateral pH 7.4: 7.4, read-out: Caco-2 permeability, calibration input",33 ×10⁻⁶ cm/s
same,Papp at 2 h,[2]; read-out: Papp,33 ×10⁻⁶ cm/s
